# In patent US7595395B2, “Gabaergic agents to treat memory deficits” (priority 2005, dated 2009):
# Legend:
# GABAA/α1 receptors = GABAA/α1 receptors (Homo sapiens, UniProt P14867+P18507); conditions: Huang et al. 2000, WO 03/082832A2; cited from earlier work
# GABAA/α2 receptors = GABAA/α2 receptors (Homo sapiens, UniProt P18507+P47869); conditions: Huang et al. 2000, WO 03/082832A2; cited from earlier work
# GABAA/α3 receptors = GABAA/α3 receptors (Homo sapiens, UniProt P18507+P34903); conditions: Huang et al. 2000, WO 03/082832A2; cited from earlier work
# GABAA/α5 receptors = GABAA/α5 receptors (Homo sapiens, UniProt P18507+P31644); conditions: Huang et al. 2000, WO 03/082832A2; cited from earlier work
# GABAA/α5 receptors, sequence (P28472 26-473 partner, one chain of several): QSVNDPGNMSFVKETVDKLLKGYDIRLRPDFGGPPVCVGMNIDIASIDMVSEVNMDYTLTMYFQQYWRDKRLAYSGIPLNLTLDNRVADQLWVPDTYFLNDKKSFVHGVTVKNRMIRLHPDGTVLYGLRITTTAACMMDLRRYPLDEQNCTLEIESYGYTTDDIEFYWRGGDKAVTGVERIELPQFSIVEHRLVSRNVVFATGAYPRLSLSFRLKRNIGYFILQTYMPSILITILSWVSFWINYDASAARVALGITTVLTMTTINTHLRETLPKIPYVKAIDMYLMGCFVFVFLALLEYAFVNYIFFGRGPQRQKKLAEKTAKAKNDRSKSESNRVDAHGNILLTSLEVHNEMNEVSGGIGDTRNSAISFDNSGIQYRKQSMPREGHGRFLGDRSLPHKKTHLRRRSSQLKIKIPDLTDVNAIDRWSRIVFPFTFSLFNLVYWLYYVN
# C57B1/6 mice = conditions: DeLorey et al.; cited from earlier work
# [1] = system: GABAA receptor subtypes (alpha 1 to alpha 6 with beta 3 and gamma 2); test: Direct triggering of chloride currents in oocytes, all tested subtypes; assay type: cell-based; conditions: no GABA
# α1β3γ2 GABAA receptor = α1β3γ2 GABAA receptor (Rattus norvegicus, UniProt P18508+P62813); test: Two-electrode voltage clamp in Xenopus oocytes, α1β3γ2
# α1β3γ2 GABAA receptor, sequence (P62813 28-455): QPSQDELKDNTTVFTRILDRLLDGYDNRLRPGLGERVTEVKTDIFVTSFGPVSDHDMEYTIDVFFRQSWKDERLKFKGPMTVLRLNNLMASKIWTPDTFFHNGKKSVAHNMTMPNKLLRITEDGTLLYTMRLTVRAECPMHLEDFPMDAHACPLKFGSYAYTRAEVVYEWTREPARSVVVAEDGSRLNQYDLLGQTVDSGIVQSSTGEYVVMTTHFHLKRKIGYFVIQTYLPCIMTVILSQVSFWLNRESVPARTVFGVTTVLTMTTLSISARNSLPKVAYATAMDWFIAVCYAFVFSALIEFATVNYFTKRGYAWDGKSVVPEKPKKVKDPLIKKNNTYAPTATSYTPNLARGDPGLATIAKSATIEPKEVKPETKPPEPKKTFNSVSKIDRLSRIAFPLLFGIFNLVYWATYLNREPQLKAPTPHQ
# α1β3γ2 GABAA receptor, sequence (P63079 26-473 partner): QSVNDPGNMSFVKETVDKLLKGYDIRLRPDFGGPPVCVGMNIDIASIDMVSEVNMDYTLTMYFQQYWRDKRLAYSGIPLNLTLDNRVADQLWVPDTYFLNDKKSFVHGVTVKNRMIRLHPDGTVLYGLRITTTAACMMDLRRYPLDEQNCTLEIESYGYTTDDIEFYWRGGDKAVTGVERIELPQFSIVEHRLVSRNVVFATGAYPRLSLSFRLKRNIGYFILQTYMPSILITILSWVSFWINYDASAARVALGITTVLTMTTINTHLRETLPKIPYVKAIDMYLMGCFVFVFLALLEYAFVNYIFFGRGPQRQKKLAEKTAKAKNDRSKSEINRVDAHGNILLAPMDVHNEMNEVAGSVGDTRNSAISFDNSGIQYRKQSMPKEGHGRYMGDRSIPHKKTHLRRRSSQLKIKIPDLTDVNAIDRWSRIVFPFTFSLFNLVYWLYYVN
# α1β3γ2 GABAA receptor, sequence (P18508 39-466): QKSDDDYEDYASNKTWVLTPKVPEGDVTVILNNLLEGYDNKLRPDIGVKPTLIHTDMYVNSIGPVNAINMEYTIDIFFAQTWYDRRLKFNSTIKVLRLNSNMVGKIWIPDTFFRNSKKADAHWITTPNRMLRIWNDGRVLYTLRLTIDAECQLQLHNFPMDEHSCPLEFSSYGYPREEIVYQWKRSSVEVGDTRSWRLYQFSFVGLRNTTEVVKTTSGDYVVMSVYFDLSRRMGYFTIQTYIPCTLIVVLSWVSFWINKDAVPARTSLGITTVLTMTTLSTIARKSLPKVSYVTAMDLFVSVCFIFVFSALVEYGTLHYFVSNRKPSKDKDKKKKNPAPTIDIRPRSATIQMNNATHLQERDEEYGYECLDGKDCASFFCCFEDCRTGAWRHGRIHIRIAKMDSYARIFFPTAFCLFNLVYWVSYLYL
# α2β3γ2 GABAA receptor = α2β3γ2 GABAA receptor (Rattus norvegicus, UniProt P18508+P23576); test: Two-electrode voltage clamp in Xenopus oocytes, α2β3γ2
# α2β3γ2 GABAA receptor, sequence (P23576 29-451): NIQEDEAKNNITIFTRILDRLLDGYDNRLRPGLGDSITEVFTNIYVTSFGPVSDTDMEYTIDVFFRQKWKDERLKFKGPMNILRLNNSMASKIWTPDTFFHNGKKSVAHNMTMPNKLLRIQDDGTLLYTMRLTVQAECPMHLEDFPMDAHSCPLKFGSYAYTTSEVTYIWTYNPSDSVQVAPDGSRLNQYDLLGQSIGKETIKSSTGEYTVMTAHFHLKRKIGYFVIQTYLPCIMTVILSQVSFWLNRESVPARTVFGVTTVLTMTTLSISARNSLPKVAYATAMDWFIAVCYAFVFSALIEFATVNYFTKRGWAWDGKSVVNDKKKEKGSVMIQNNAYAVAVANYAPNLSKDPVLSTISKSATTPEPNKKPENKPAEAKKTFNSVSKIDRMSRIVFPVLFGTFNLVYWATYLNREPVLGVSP
# α2β3γ2 GABAA receptor, sequence (P63079 26-473 partner): as the sequence (P63079 26-473 partner) above
# α2β3γ2 GABAA receptor, sequence (P18508 39-466): as the sequence (P18508 39-466) above
# α3β3γ2 GABAA receptor = α3β3γ2 GABAA receptor (Rattus norvegicus, UniProt P18508+P20236); test: Two-electrode voltage clamp in Xenopus oocytes, α3β3γ2
# α3β3γ2 GABAA receptor, sequence (P20236 29-493): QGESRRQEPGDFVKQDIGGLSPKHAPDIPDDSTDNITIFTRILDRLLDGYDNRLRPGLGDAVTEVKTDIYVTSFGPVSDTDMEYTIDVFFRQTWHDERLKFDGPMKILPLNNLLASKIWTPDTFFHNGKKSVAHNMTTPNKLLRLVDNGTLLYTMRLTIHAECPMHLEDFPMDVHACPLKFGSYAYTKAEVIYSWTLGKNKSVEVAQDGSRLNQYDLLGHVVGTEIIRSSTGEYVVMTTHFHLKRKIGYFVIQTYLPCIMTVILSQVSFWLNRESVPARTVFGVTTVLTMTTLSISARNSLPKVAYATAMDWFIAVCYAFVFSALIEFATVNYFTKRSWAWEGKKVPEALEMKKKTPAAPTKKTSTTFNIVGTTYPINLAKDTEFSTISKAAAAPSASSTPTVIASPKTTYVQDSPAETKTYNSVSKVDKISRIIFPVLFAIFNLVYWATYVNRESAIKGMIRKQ
# α3β3γ2 GABAA receptor, sequence (P63079 26-473 partner): as the sequence (P63079 26-473 partner) above
# α3β3γ2 GABAA receptor, sequence (P18508 39-466): as the sequence (P18508 39-466) above
# α4β3γ2 GABAA receptor = α4β3γ2 GABAA receptor (Rattus norvegicus, UniProt P18508+P28471); test: Two-electrode voltage clamp in Xenopus oocytes, α4β3γ2
# α4β3γ2 GABAA receptor, sequence (P28471 36-552): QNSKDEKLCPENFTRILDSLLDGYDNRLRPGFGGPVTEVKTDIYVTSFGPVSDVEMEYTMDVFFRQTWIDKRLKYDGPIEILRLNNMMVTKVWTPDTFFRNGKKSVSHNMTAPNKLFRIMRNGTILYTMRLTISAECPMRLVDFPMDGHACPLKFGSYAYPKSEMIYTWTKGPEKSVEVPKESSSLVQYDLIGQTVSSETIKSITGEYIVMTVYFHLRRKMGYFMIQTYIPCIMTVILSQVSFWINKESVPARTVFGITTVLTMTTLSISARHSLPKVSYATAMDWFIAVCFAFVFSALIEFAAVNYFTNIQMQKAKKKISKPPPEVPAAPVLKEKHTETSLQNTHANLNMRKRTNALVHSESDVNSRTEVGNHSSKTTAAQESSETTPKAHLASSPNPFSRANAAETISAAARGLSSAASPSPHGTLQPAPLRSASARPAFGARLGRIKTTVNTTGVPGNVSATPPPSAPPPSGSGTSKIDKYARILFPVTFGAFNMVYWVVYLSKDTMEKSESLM
# α4β3γ2 GABAA receptor, sequence (P63079 26-473 partner): as the sequence (P63079 26-473 partner) above
# α4β3γ2 GABAA receptor, sequence (P18508 39-466): as the sequence (P18508 39-466) above
# α5β3γ2 GABAA receptor = α5β3γ2 GABAA receptor (Rattus norvegicus, UniProt P18508+P19969); test: Two-electrode voltage clamp in Xenopus oocytes, α5β3γ2
# α5β3γ2 GABAA receptor, sequence (P19969 26-464): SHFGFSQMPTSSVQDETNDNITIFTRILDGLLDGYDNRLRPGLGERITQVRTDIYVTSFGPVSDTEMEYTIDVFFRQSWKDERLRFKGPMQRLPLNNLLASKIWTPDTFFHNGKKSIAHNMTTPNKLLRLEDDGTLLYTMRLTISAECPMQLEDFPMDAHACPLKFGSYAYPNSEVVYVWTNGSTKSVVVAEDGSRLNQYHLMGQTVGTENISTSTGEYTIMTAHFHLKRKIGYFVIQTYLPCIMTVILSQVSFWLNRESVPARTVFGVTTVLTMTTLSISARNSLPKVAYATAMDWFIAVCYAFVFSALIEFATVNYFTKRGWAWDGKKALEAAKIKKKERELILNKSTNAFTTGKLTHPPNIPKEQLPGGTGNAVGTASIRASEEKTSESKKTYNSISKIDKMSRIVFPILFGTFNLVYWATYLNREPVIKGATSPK
# α5β3γ2 GABAA receptor, sequence (P63079 26-473 partner): as the sequence (P63079 26-473 partner) above
# α5β3γ2 GABAA receptor, sequence (P18508 39-466): as the sequence (P18508 39-466) above
# α6β3γ2 GABAA receptor = α6β3γ2 GABAA receptor (Rattus norvegicus, UniProt P18508+P30191); test: Two-electrode voltage clamp in Xenopus oocytes, α6β3γ2
# α6β3γ2 GABAA receptor, sequence (P30191 20-453): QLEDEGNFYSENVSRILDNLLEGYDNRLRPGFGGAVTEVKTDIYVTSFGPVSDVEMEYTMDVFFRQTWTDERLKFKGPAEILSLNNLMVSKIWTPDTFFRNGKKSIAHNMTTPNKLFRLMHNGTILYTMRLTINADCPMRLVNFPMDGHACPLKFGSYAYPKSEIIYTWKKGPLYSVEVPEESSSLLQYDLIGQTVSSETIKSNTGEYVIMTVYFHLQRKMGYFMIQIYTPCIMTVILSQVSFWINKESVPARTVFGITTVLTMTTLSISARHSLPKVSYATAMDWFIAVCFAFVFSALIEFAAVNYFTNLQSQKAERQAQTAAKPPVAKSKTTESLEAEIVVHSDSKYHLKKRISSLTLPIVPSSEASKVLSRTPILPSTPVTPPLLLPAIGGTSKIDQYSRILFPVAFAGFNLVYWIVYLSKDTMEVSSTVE
# α6β3γ2 GABAA receptor, sequence (P63079 26-473 partner): as the sequence (P63079 26-473 partner) above
# α6β3γ2 GABAA receptor, sequence (P18508 39-466): as the sequence (P18508 39-466) above
# [2] = system: αxβ3γ2 (α = 1-6) BzR/GABA(A) subtypes; test: Binding across the BzR/GABA(A) subtypes (subtype selectivity in words); parameters: species or system human and rat
# Method: The binding affinity of XLi093 (8) in vitro was determined on α1-6β3γ2 LTK cells and is illustrated in the Scheme as shown in FIG. 2
# The affinity of all ligands at the 6 major recombinant GABAA/BzR subtypes was measured by competition for [^3H]Ro15-1788 binding to HEK-T cells expressing both human and rat GABAA/Bz receptors of composition α1β2γ2 (α1), α2β2γ2 (α2), α3β2γ2 (α3), α4β2γ2 (α4), α5β2γ2 (α5) and α6β2γ2 (α6). It is well known that the β2 and β3 subunits can be interchanged with no effect on Bz ligand affinity or efficacy. […] These studies are similar to those performed in the laboratory of Bryan Roth who has already expressed the receptors employing the work of Kucken et. al. and Gray et. al.
# In brief, for membrane preparations, the cells were scraped on to the ice and diluted into 5 mL of phosphate buffered saline (pH=7.40) and cells pelleted by centrifugation for 5 min. at 4° C. The pellet was resuspended in 1 mL of 50 mM Tris-acetate buffer (pH 7.4) and centrifuged at 18,000 g for 20 min. […] The membranes were harvested in polyethyleneimine-pretreated Whatman GF/C filters and after drying and addition of scintillation cocktail, counted in a scintillation counter. […]
# C57BL/6J mice = test: Titrating delayed matching-to-position schedule; assay type: in vivo
# Method: In regard to cognition, the effect of systemic administration of subtype selective agents on short term memory was determined in white Carneau pigeons. Administration of drug was intramuscularly and the titrating matching-to-sample schedule of reinforcement was used. […] In addition, C57BL/6J mice were used to look at the mean delay achieved in the titrating delayed matching-to-position schedule (doses, ip).
# [3] = Crossing of the blood brain barrier; conditions: in vivo
# [4] = target: T1, α5β3γ2 benzodiazepine receptor GABA(A) isoform (UniProt P18507+P31644); test: Radioligand competition binding, α5β3γ2 BzR/GABA(A) isoform; parameters: rows headed: Ki at α5β3γ2 subtypes; other: text; α1-6β3γ2 LTK cells; species or system human and rat; conditions: read-out: Ki at α5β3γ2 subtypes; α1-6β3γ2 LTK cells
# T1 sequence (P18507 1-475): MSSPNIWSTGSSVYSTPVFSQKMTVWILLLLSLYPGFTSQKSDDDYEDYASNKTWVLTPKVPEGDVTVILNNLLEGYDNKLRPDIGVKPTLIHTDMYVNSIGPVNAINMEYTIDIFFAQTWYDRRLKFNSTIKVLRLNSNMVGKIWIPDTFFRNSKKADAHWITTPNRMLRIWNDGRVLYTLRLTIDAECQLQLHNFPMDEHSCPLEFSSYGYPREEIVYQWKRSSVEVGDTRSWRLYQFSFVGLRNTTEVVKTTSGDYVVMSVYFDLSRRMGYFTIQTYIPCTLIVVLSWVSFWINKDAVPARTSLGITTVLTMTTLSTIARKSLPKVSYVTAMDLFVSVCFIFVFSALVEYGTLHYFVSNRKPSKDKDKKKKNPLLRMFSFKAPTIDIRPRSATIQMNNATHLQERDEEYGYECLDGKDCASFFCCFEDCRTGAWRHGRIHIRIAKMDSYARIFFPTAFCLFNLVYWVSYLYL
# T1 sequence (P31644 1-462): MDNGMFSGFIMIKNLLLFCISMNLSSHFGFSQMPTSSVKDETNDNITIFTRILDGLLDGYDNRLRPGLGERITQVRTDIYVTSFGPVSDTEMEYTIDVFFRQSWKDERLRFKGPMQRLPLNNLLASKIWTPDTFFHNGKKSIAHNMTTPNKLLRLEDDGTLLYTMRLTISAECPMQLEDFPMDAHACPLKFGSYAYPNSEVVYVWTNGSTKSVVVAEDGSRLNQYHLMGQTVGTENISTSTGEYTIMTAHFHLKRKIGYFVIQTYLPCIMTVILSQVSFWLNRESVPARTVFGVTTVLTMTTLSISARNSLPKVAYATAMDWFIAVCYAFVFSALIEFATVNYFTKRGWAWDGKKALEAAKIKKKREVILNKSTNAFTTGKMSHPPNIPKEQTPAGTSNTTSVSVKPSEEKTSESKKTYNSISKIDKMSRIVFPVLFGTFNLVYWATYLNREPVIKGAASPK
# GABAA/α2 receptors, sequence (P47869 29-451, one chain of several): as the sequence (P23576 29-451) above, with S88L, P174A, G330A counted along it
# GABAA/α2 receptors, sequence (P28472 26-473 partner, one chain of several): as the sequence (P28472 26-473 partner, one chain of several) above
compound,measurement,setting,value
C#Cc1ccc2c(c1)C(c1ccccc1)=NCC(=O)N2C [QH-ii-066],Ki,GABAA/α1 receptors,> 70 nM
same,Ki,GABAA/α2 receptors,< 50 nM
same,Ki,GABAA/α3 receptors,< 50 nM
same,Ki,GABAA/α5 receptors,< 10 nM
"CCOC(=O)c1ncn2c1CN(C)C(=O)c1cc(CC)ccc1-2 [RY10, Ethyl 8-Ethyl-5,6-dihydro-5-methyl-6-oxo-4H-imidazo[1,5a][1,4]benzodiazepine-3-carboxylate]",reversal of scopolamine-induced memory impairment (in words),C57B1/6 mice,potently reversed scopolamine-induced memory impairment
C#Cc1ccc2c(c1)C(=O)N(C)Cc1c(C(=O)OC(C)(C)C)ncn1-2 [RY024],triggering of chloride currents (in words),[1]; concentrations up to 1 μM,did not trigger chloride currents
same,Estimated maximum modulation ± SD,"α1β3γ2 GABAA receptor; GABA EC20, α1β3γ2, extrapolated by curve-fit",−31.0±2.5%
same,efficacy / modulation of GABA elicited currents at α1 (in words),α1β3γ2 GABAA receptor; oocytes,reduced GABA elicited currents in a concentration dependent manner
same,Estimated maximum modulation ± SD,"α2β3γ2 GABAA receptor; GABA EC20, α2β3γ2, extrapolated by curve-fit",−20.7±1.2%
same,efficacy / modulation of GABA elicited currents at α2 (in words),α2β3γ2 GABAA receptor; oocytes,reduced GABA elicited currents in a concentration dependent manner
same,reduction of the stimulation by 30 nM Diazepam,"α3β3γ2 GABAA receptor; 1 μM compound, α3 containing receptors, GABA EC3",96.3±4.7%
same,Estimated maximum modulation ± SD,"α3β3γ2 GABAA receptor; GABA EC20, α3β3γ2, extrapolated by curve-fit",−3.3±2.1%
same,efficacy / modulation of GABA elicited currents at α3 (in words),α3β3γ2 GABAA receptor; oocytes,no apparent modulation
same,Estimated maximum modulation ± SD,"α4β3γ2 GABAA receptor; GABA EC20, α4β3γ2, extrapolated by curve-fit",+43.0 ± 15.9%
same,efficacy / modulation of GABA elicited currents at α4 (in words),α4β3γ2 GABAA receptor; oocytes,weakly stimulated
same,Estimated maximum modulation ± SD,"α5β3γ2 GABAA receptor; GABA EC20, α5β3γ2, extrapolated by curve-fit",−40.4±0.8%
same,efficacy / modulation of GABA elicited currents at α5 (in words),α5β3γ2 GABAA receptor; oocytes,reduced GABA elicited currents in a concentration dependent manner
same,EC50 lower for α5 containing receptors than for α1 and α2,α5β3γ2 GABAA receptor; reduction of GABA elicited currents,~10 fold
same,Estimated maximum modulation ± SD,"α6β3γ2 GABAA receptor; GABA EC20, α6β3γ2, extrapolated by curve-fit",+35.2 ± 1.5%
same,efficacy / modulation of GABA elicited currents at α6 (in words),α6β3γ2 GABAA receptor; oocytes,weakly stimulated
"C#Cc1ccc2c(c1)C(=O)N(C)Cc1c(C(=O)OCCCOC(=O)c3ncn4c3CN(C)C(=O)c3cc(C#C)ccc3-4)ncn1-2 [XLi-093, 1,3-Bis(8-acetyleno-5,6-dihydro-5-methyl-6-oxo-4H-imidazo[1,5a][1,4]-benzodiaze-pine-3-carboxy)propyl diester]",affinity at other BzR/GABA(A) subtypes than α5 (in words),[2],little or no affinity
same,triggering of chloride currents (in words),[1]; up to a concentration of 1 nM,did not trigger chloride currents
same,performance / mean delay under titrating delayed matching to position schedule (in words),C57BL/6J mice,does indeed enhance performance
same,crossing of the blood brain barrier (in words),[3],does cross the blood brain barrier
same,modulation of GABA induced chloride flux (in words),"α1β3γ2 GABAA receptor; 1 uM, α1β3γ2",did not modulate
same,influence on diazepam stimulation of GABA-induced current (in words),"α1β3γ2 GABAA receptor; 1 μM, α1β3γ2",only marginally influenced
same,modulation of GABA induced chloride flux (in words),"α2β3γ2 GABAA receptor; 1 uM, α2β3γ2",did not modulate
same,influence on diazepam stimulation of GABA-induced current (in words),"α2β3γ2 GABAA receptor; 1 μM, α2β3γ2",only marginally influenced
same,modulation of GABA induced chloride flux (in words),"α3β3γ2 GABAA receptor; 1 uM, α3β3γ2",did not modulate
same,influence on diazepam stimulation of GABA-induced current (in words),"α3β3γ2 GABAA receptor; 1 μM, α3β3γ2",only marginally influenced
same,modulation of GABA induced chloride flux (in words),"α5β3γ2 GABAA receptor; 1 uM, α5β3γ2",very slightly inhibited currents
same,influence on diazepam stimulation of GABA-induced current (in words),"α5β3γ2 GABAA receptor; 1 μM, α5β3γ2",shifted the diazepam dose response curve to the right
same,inhibition of diazepam-stimulated currents (in words),α5β3γ2 GABAA receptor; α5β3γ2 receptors,dose dependently and completely inhibit
same,Ki,[4],15 nM
